From ChEMBL document CHEMBL3992507, “Design, synthesis and evaluation of 4-aminoquinoline-purine hybrids as potential antiplasmodial agents” (Eur J Med Chem, 2017) come the findings set out here.

Series [1] in a line: Selectivity index, ratio of IC50 for African green monkey Vero cells to IC50 for chloroquine-sensitive Plasmodium falciparum D6 infected in human RBC. Format: toxicity. The conditions noted are these: read-out: Ratio IC50.
For series [2], the system named is Plasmodium falciparum. As to the kind of experiment: Antiplasmodial activity against chloroquine-sensitive Plasmodium falciparum D6 infected in human RBC assessed as decrease in parasite viability after 72 hrs by LDH assay. Type of series: functional. The conditions noted are these: D6, 72 h.
Series [3] relates to Plasmodium falciparum. As to the kind of experiment: Antiplasmodial activity against chloroquine-resistant Plasmodium falciparum W2 infected in human RBC assessed as decrease in parasite viability after 72 hrs by LDH assay. Type of series: functional. The conditions noted are these: W2, 72 h.
The nature of series [4]: Selectivity index, ratio of IC50 for African green monkey Vero cells to IC50 for chloroquine-resistant Plasmodium falciparum W2 infected in human RBC. Format: toxicity. The conditions noted are these: read-out: Ratio IC50.
The test system of another series is Vero. Briefly: Cytotoxicity against African green monkey Vero cells after 48 hrs by neutral red uptake assay. Format: cell-based. The conditions noted are these: Chlorocebus sabaeus.
Series [5] deals with Heme. As to the kind of experiment: Binding affinity to monomeric heme (unknown origin) assessed as 1:1 stoichiometry for heme-compound complex at 10 uM at pH 5.6 and 7.4 by Job's plot analysis.
Series [6] has as its system Plasmodium falciparum. Briefly: Potency index, ratio of chloroquine IC50 to compound IC50 for chloroquine-resistant Plasmodium falciparum W2. Type of series: functional.
The nature of series [7]: Binding affinity to dimeric heme (unknown origin) assessed as change in absorbance band intensity at 362 nm at 10 uM at pH 5.6 by spectrophotometric titration method.
Series [8] relates to Heme. Briefly: Binding affinity to monomeric heme (unknown origin) assessed as decrease in intensity of soret band at 402 nm at pH 5.6 and 7.4 by spectrophotometric titration method.

Activity calls are given as the source filed them. No cut-off for these calls is given here.

Regarding `Clc1ccc2c(NCCn3cnc4c(N5CCSCC5)nc(Cl)nc43)ccnc2c1`, the results for the selectivity ratio in series [1] and in series [4] were 19.5 and 9.6, respectively. The figures for the IC50 with Plasmodium falciparum [2], in the series on Plasmodium falciparum [3] and with Vero were 292 nM, 590 nM and 5680 nM, respectively.
With `CCN(CC)c1nc(Cl)nc2c1ncn2CCNc1ccnc2cc(Cl)ccc12`, the figures for the selectivity ratio in [1] and in [4] were greater than 2.4 and greater than 1.6, respectively. Further, the IC50 in the series on Plasmodium falciparum [2] was 4650 nM; in the series on Plasmodium falciparum [3], 6760 nM; with Vero, greater than 11100 nM.
For `CN(C)c1nc(Cl)nc2c1ncn2CCCNc1ccnc2cc(Cl)ccc12`, in that order: greater than 45, greater than 10.5, 254 nM, 1090 nM and greater than 11500 nM.
For the molecule `Clc1ccc2c(NCCCn3cnc4c(N5CCSCC5)nc(Cl)nc43)ccnc2c1`, the selectivity ratio in [1] is greater than 22.6; in series [4], greater than 5.6. Also, the IC50 is 446 nM with Plasmodium falciparum [2], 1800 nM in the series on Plasmodium falciparum [3] and greater than 10100 nM in the series on Vero.
For `Clc1ccc2c(NCCCn3cnc4c(N5CCCCCC5)nc(Cl)nc43)ccnc2c1`, in that order: greater than 8.3, greater than 4.3, 1230 nM, 2380 nM and greater than 10100 nM.
For `CCN1CCN(c2nc(Cl)nc3c2ncn3CCCNc2ccnc3cc(Cl)ccc23)CC1`, in that order: greater than 101, greater than 49.5, 97 nM, 198 nM and greater than 9830 nM.
For `CN1CCN(c2nc(Cl)nc3c2ncn3CCCNc2ccnc3cc(Cl)ccc23)CC1`, in that order: greater than 145, greater than 54.5, 69 nM, 185 nM and greater than 10100 nM.
As to `CN1CCN(c2nc(Cl)nc3c2ncn3CCNc2ccnc3cc(Cl)ccc23)CC1`, the selectivity ratio is greater than 124 in series [1] and greater than 85.4 in [4]. Besides, the concentration for half-maximal inhibition (IC50) with Plasmodium falciparum [2] is 84 nM; with Plasmodium falciparum [3], 122 nM; in the series with Vero, greater than 10400 nM.
For `CCN(CC)c1nc(Cl)nc2c1ncn2CCCNc1ccnc2cc(Cl)ccc12`, in that order: greater than 19.3, greater than 10.9, 556 nM, 983 nM and greater than 10700 nM.
In the series on Vero, `CCN(CC)CCCC(C)Nc1ccnc2cc(Cl)ccc12` (configuration not stated) [CHLOROQUINE] had an IC50 greater than 14900 nM.
With `CCN1CCN(c2nc(Cl)nc3c2ncn3CCNc2ccnc3cc(Cl)ccc23)CC1`, the results for the selectivity ratio in series [1] and in series [4] were greater than 164 and greater than 125, respectively. Moreover, the IC50 was 61 nM with Plasmodium falciparum [2], 80 nM in the series with Plasmodium falciparum [3] and greater than 10100 nM with Vero. The outcome (with Heme [5]; in [7]; in the series with Heme [8]) was Active. The “Ratio IC50” value in the series on Plasmodium falciparum [6] amounted to 6.
Turning to `Clc1ccc2c(NCCCn3cnc4c(N5CCOCC5)nc(Cl)nc43)ccnc2c1`, the results for the selectivity ratio in series [1] and in series [4] were greater than 12.5 and greater than 9.1, respectively. Besides, the IC50 was 833 nM with Plasmodium falciparum [2], 1150 nM in the series with Plasmodium falciparum [3] and greater than 10400 nM with Vero.
Take `C[C@@H]1CC[C@H]2[C@@H](C)C(=O)O[C@@H]3O[C@@]4(C)CC[C@@H]1[C@]32OO4` [ARTEMISININ]: the IC50 in the series on Plasmodium falciparum [2] is 25 nM; with Vero, greater than 16900 nM.
Take `Clc1ccc2c(NCCCn3cnc4c(N5CCCC5)nc(Cl)nc43)ccnc2c1`: the selectivity ratio is greater than 10 in series [1] and greater than 6.1 in series [4]. Further, the IC50 was 1080 nM with Plasmodium falciparum [2], 1760 nM with Plasmodium falciparum [3] and greater than 10800 nM with Vero.
For `Clc1ccc2c(NCCn3cnc4c(N5CCOCC5)nc(Cl)nc43)ccnc2c1`, in that order: greater than 53.4, greater than 47.4, 201 nM, 226 nM and greater than 10700 nM.
For `Clc1ccc2c(NCCn3cnc4c(N5CCCCC5)nc(Cl)nc43)ccnc2c1`, in that order: greater than 31.1, greater than 4.4, 347 nM, 2450 nM and greater than 10800 nM.
For `Clc1ccc2c(NCCn3cnc4c(N5CCCC5)nc(Cl)nc43)ccnc2c1`, in that order: greater than 25, greater than 11.3, 445 nM, 984 nM and greater than 11100 nM.
In the case of `Clc1ccc2c(NCCCn3cnc4c(N5CCN(c6ccccc6)CC5)nc(Cl)nc43)ccnc2c1`, the results for the selectivity ratio in [1] and in series [4] were greater than 47.6 and greater than 17.7, respectively. The IC50 with Plasmodium falciparum [2] was 187 nM; in the series on Plasmodium falciparum [3] it was 504 nM; in the series with Vero it was greater than 8900 nM.
Regarding `Clc1ccc2c(NCCCn3cnc4c(N5CCCCC5)nc(Cl)nc43)ccnc2c1`, the selectivity ratio was greater than 3.1 in series [1] and greater than 2.8 in [4]. In addition, the 50% inhibitory concentration (IC50) in the series on Plasmodium falciparum [2] was 3330 nM; in the series on Plasmodium falciparum [3] it was 3760 nM; in the series with Vero, greater than 10400 nM.
As to `Clc1ccc2c(NCCn3cnc4c(N5CCN(c6ccccc6)CC5)nc(Cl)nc43)ccnc2c1`, the selectivity ratio in series [1] was found to be 26.2; in [4], 9.4. Besides, the IC50 with Plasmodium falciparum [2] worked out at 154 nM; in the series with Plasmodium falciparum [3] it was 428 nM; with Vero it was 4040 nM.
For `Clc1ccc2c(NCCn3cnc4c(N5CCCCCC5)nc(Cl)nc43)ccnc2c1`, in that order: greater than 24.9, greater than 14.3, 419 nM, 729 nM and greater than 10400 nM.
For `CN(C)c1nc(Cl)nc2c1ncn2CCNc1ccnc2cc(Cl)ccc12`, in that order: greater than 46.6, greater than 32.8, 254 nM, 361 nM and greater than 11900 nM.

As a reminder, the IC50 is the concentration that gives 50% inhibition.
